Laboratory results: patent US10272086B2 (CHANG GUNG MEMORIAL HOSPITAL, LINKOU, priority 2013, dated 2019)

Tests used:
[1] = biological target: T1, glucocorticoid receptor (GR) (Homo sapiens, UniProt P04150); assay: Glucocorticoid receptor transcriptional activity reporter assay in PC-3 cells (control study); type: cell-based
T1 construct: host or cells: PC-3
T1 sequence (P04150 1-777): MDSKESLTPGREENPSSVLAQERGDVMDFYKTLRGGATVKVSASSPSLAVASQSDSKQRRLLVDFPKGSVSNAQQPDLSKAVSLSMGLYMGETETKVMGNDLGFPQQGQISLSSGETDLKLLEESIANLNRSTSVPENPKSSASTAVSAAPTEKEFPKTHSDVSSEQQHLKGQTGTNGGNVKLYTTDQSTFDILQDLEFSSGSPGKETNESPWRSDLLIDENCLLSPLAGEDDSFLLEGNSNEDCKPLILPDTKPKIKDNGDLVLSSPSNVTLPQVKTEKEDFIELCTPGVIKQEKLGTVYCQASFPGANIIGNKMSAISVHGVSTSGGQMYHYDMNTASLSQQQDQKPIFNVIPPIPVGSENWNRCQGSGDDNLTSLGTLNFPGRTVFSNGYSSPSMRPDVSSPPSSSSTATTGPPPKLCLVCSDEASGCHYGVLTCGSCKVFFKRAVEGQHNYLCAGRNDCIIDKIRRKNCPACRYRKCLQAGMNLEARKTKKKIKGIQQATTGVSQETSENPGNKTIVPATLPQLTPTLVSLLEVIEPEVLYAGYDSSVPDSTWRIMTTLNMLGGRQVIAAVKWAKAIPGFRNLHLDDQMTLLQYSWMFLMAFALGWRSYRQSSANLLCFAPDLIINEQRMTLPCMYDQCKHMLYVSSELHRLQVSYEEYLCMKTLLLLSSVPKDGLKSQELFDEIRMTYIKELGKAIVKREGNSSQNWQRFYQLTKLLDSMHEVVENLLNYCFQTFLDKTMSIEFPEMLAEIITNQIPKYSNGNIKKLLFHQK

[2] = Topical Minoxidil on forehead acne in a patient, 7-day course; type: in vivo, human
Protocol: An in vivo evaluation of topical Minoxidil on acne was carried out in a patient. […] In addition, there was less new […] formation on the left (treated) forehead compared to the right (untreated) forehead.

[3] = Double-blind clinical trial of topical Minoxidil versus placebo in patients with acne; type: in vivo, human
Protocol: A double-blind clinical trial is conducted, in which topical Minoxidil and placebo are administered to patients with acne.

[4] = system: PSA (prostate specific antigen) protein expression; assay: Western blot of AR regulated PSA protein expression in LNCaP cells; type: cell-based, human; details: 10^−3˜10^−5 M Minoxidil, 24 h
Protocol: The cells were prepared for electrophoresis on SDS/PAGE gel and then transferred onto nitrocellulose (Minipore, Billerica, USA). AR, PSA and beta-actin proteins were identified using anti-AR (N-20 from Santa Cruz Biotechnology, Santa Cruz, USA), anti-PSA (C-19 from Santa Cruz Biotechnology, Santa Cruz, USA), or […] (MAB1501 from Millipore, Billerica, USA) respectively. Images were shown using alkaline phosphatase substrate color kit (Bio-Rad, Hercules, USA).

[5] = Topical 5% Minoxidil on an acne on a patient's face, two applications; type: in vivo, human

GR transcriptional activity ([1]; highest concentration 100 μM): did affect GR transcriptional activity
GR transcriptional activity ([1]; lower concentrations 1-10 μM): did not
Structure (SMILES): Nc1cc(N2CCCCC2)nc(N)[n+]1[O-] [Minoxidil, 6-piperidin-1-ylpyrimidine-2,4-diamine 3-oxide]
New pimple formation, treated versus untreated forehead ([2]; 5% Minoxidil solution, topical, once a day for 7 days): less new pimple formation on the left (treated) forehead
Pimples on treated forehead ([2]; 5% Minoxidil solution, topical, once a day for 7 days, left forehead treated, right forehead control): disappearance of pimples on the left (treated) forehead
Healing time of acne ([2]; 5% topical Minoxidil, 7-day course): faster healing time
Symptoms and signs of acne in comparison with the placebo group [3]: statistically significant reduction in the symptoms and signs of acne
AR regulated PSA protein expression [4]: effective in inhibiting AR regulated PSA protein expression in the presence of DHT, in a dose dependent manner
Erythema and swelling around the acne ([5]; 5% Minoxidil, topical, after two applications): significant reduction in erythema and swelling around the acne
Efficacy in treating acne ([5]; 5% topical Minoxidil, 48-hour period): effective in treating acne
